Measured values taken from patent US20090029984A1 (priority 2005, published 2009).
Several values for one entry are separate records, joined by “and”; a condition that tells them apart may be missing. Equal values may be shown once. Entries after “also recorded” stand apart in the source; their conditions may differ. Read-outs that look alike come from different tables or passages of the source.

Assays:
mice = settings: mouse, in vivo
human CB2 receptor = molecular target: T1, human CB2 receptor (Homo sapiens, UniProt P34972); assay: Efficacy and potency at the human CB2 receptor expressed in CHO cells (cAMP, forskolin); type: cell-based
T1 construct: expressed in transfected cells; host or cells: CHO cells
T1 sequence (P34972 whole entry): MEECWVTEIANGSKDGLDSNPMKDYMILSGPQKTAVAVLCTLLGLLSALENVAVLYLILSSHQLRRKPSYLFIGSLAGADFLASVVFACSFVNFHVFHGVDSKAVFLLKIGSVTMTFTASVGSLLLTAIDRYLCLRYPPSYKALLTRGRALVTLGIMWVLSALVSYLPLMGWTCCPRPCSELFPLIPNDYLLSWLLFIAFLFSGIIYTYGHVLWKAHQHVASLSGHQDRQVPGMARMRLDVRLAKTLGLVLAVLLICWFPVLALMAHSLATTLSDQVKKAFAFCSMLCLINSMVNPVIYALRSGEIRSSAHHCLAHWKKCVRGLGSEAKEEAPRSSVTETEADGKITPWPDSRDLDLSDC

[1] = rat, cited from earlier work

COc1ccc2c3c1O[C@H]1[C@@H](O)C=C[C@H]4[C@@H](C2)N(C)CC[C@@]341 [Codeine, reference compound]
% of MPE (mice; iv): 44.2% | Tail flick latency (s) + s.e.m. at Tmax (mice; iv): 6.95 ± 0.84 s

CCOC(=O)c1c(C)cc2nc(COC(=O)NCCO)n(-c3ccccc3S(=O)(=O)NC)c(=O)c2c1C [Compound 1a, 2-(2-Hydroxy-ethylcarbamoyloxymethyl)-5,7-dimethyl-3-(2-methylsulfamoylphenyl)-4-oxo-3,4-dihydro-quinazoline-6-carboxylic acid ethyl ester]
EC50 (human CB2 receptor): 3.5 nM | Emax (human CB2 receptor; CHO, relative to maximal response (100%) obtained with CP 55940, human CB2): 107% | effect on tail flick latency (in words) (mice): had no effect on tail flick latency | effect on tail flick latency (in words) (mice; iv): had no effect on tail flick latency; also recorded: did not increase the tail flick latency | time of maximum effect post-injection (mice; iv): 40 min

Cl.O=C(NCCO)[C@H]1CCCN(Cc2nc(-c3cn(CC4CCS(=O)(=O)CC4)c4c(Cl)cccc34)ns2)C1 [Compound 2, (S)-7-Chloro-3-[(5-{[3-N-(2-hydroxyethyl)carboxamido]piperidin-1-yl}methyl)([1,2,4]-thiadiazol-3-yl)]-1-(1,1-dioxo-hexahydrothiopyran-4-yl)methyl-1H-indole, hydrochloride salt]
combination versus opioid on its own (in words) (mice): significantly different | time of maximum effect post-injection (mice; iv): 20 min | effect of co-administration on tail flick latency (in words) (mice; iv, hydrochloride salt): increased tail flick latency in a dose-dependent manner; also recorded: dose-dependent potentiation

Cc1c(C(=O)c2cccc3ccccc23)c2cccc3c2n1[C@H](CN1CCOCC1)CO3 [WIN55, 212-2]
brain-to-plasma ratio ([1]; Dyson et al 2005): 1.3-1.9

C=C(C)[C@@H]1CCC(C)=C[C@H]1c1c(O)cc(CCCCC)cc1O [cannabidiol]
brain-to-plasma ratio ([1]; Alozie et al 1980): 2.61

CCCCCc1cc(O)c2c(c1)OC(C)(C)c1ccc(C)cc1-2 [cannabinol]
brain-to-plasma ratio ([1]; Alozie et al 1980): 0.88

CN1CC[C@]23c4c5ccc(O)c4O[C@H]2[C@@H](O)C=C[C@H]3[C@H]1C5 [morphine, reference compound]
% of MPE (mice; iv): 47.7% and 42.9%

CCCCCc1cc(O)c2c(c1)OC(C)(C)[C@@H]1CCC(C)=C[C@@H]21 [Δ^9THC, Δ^9-tetrahydrocannabinol]
brain-to-plasma ratio ([1]; Alozie et al 1980): 0.96 | brain-to-plasma ratio ([1]; Dyson et al 2005): 1.0
